Experimental findings from paper PMC4745898 (Science signaling, 2015) are described below.

Molecules are shown by their SMILES.

The experiment deals with TRPA1 (Rattus norvegicus, UniProt Q6RI86). The experiment is described as follows: TIRF Ca2+ imaging of TRPA1 sparklets in cerebral artery endothelial cells. It is filed as cell-based.
TRPA1, sequence (Q6RI86 whole entry): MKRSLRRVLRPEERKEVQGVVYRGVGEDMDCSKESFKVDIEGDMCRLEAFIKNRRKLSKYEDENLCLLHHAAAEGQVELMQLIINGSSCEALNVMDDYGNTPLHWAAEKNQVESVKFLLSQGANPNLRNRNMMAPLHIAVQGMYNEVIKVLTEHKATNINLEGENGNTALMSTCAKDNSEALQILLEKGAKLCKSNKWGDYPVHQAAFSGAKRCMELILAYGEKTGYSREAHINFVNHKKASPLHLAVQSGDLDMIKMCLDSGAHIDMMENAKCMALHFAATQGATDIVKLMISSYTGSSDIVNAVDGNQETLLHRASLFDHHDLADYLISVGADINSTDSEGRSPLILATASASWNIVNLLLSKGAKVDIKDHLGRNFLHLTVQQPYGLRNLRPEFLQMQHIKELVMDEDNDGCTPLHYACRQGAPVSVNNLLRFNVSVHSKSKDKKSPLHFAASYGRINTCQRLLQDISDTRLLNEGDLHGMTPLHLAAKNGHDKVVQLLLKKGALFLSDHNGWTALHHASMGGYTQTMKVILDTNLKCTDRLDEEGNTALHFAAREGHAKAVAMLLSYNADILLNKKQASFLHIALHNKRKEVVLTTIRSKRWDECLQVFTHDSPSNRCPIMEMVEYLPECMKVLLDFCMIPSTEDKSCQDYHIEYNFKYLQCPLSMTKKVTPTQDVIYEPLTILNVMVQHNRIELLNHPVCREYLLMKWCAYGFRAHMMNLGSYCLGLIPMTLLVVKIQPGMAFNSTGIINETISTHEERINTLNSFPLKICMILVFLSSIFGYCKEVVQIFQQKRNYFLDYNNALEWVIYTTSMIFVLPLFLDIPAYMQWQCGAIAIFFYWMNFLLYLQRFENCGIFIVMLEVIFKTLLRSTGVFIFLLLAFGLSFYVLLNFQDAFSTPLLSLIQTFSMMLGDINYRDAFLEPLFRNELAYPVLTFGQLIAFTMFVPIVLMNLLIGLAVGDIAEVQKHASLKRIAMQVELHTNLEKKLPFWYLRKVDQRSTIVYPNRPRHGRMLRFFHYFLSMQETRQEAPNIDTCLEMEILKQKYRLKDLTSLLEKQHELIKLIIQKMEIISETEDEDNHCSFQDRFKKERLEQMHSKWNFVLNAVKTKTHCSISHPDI

The EC50 is the concentration that produces a half-maximal response. Low values mean an effect from little substance, high ones a need for much substance. `CCCCCC(O)C=CC=O` (stereo not shown) [4-HNE] had a half-maximal effective concentration (EC50) of 64.8 ± 50.4 nM.
